Data: US8637493B2, “Methods for treating glioblastoma” (University of Massachusetts, priority 2009, dated 2014)

Experiments:
[1] = test system: Hey1; assay: RT-PCR / qRT-PCR of Notch target Hey1 mRNA in neurosphere cultures after DAPT; type: cell-based, human; conditions: for decrease of Hey1 mRNA level: 48 hours after treatment, RT-PCR; for Hey1 expression (qRT-PCR): 1 μM DAPT, 48 hours
Procedure: TMZ concentrations for each culture were selected based on previous experiments (Mihaliak et al., Cancer Letts. 296, 168-177 (2010)) DAPT and LY concentrations were chosen for each culture based on the decrease in Hes1 and Hey1 expression. RNA was isolated from the cultures 48 hours after DAPT treatment, and Hes1 and Hey1 cDNA expression levels were analyzed by PCR or qPCR.
RT-PCR and RT-qPCR were performed as follows. Neurosphere cultures were pelleted and tumor tissues from subcutaneous xenografts were broken into a powder using a BioPulverizer (Biospec Products, Inc., Bartlesville, Okla.). RNA was isolated from neurosphere cultures and frozen tumor samples using TRIzol Reagent (Invitrogen, Carlsbad, Calif.), following the manufacturer's protocol. RNA was treated with DNase I, Amplification Grade (Invitrogen, Carlsbad, Calif.). cDNA was made using the SuperScript II Reverse Transcription (RT) Kit with Oligo(dT)12-18 primers (Invitrogen, Carlsbad, Calif.), followed by a 20 minute incubation at 37° C. with RNaseH. PCR was carried out using Taq DNA Polymerase, following the manufacturer's protocol (Invitrogen, Carlsbad, Calif.). Real time qPCR was carried out using QuantiTect SYBR Green (QIAGEN, Valencia, Calif.). Hes1 and β-Actin primers were developed using Primer3 (Rozen and Skaletsky, Methods Mol Biol 2000; 132: 365-86). Hes1 forward primer: 5″ […] 3″ (SEQ ID NO:1) and reverse primer: 5″ […] 3″ (SEQ ID NO:2). β-Actin (RT-PCR) forward primer: 5″[…] 3″ (SEQ ID NO:3) and reverse primer: 5″ […] 3″ (SEQ ID NO:4). β-Actin (qRT-PCR) forward primer: 5″[…] 3″ (SEQ ID NO:5) and reverse primer: 5″ […] (SEQ ID NO:6). Primers for Hey1 (Osipo et al., Oncogene 2008; 27: 5019-32), Notch1 (Lefort et al., Genes Dev 2007; 21: 562-77), Notch2 (O'Neill et al., Am J Pathol 2007; 171: 1023-36), Notch3 (Buchler et al., Ann Surg 2005; 242: 791-800, discussion −1) and Notch4 (Buchler et al., Ann Surg 2005; 242: 791-800, discussion −1) were previously published, RT-PCR products were analyzed on 2% agarose gels. tantification of band intensity for DAPT treated lines was determined using ImageJ (Rasband W S. ImageJ, U.S. National Institutes of Health, Bethesda, Md., USA. 1997-2004). cDNA levels for qRT-PCR products were calculated using the PFAFFL method (Pfaffl, Nucleic Acids Res 2001; 29: e45).

[2] = test system: U87NS xenografts; assay: In vivo treatment of pre-existing subcutaneous U87NS xenografts; set-up: species or system nude mice
Procedure: We tested the effect of in vivo TMZ+GSI treatments on pre-existing subcutaneous glioma xenografts. […] When the tumor reached approximately 150 mm^3 (volume=([…])(π)(length/2)(width/2)^2), we began the following treatments: 1) DMSO control: two days of 100 μl DMSO/PBS (1:1) intraperitoneal (i.p.) injections; 2) TMZ-only: injections of TMZ (20 mg/kg) in 100 μl DMSO/PBS on days one and two; 3) LY chow-only: two days of 100 μl DMSO/PBS i.p. injections. […] The mice were fed LY chow from day 3 to 12.

[3] = test system: GS8-26; assay: Neurosphere formation / recovery / secondary neurosphere assay, GS8-26; type: cell-based, human
Procedure: The effect of chemotherapy on neurosphere formation was assayed in glioma neurosphere cultures. Cultures are treated with a single dose of the agent, e.g., TMZ and multiple doses of a GSI, e.g., DAPT to inhibit the Notch pathway. After the Treatment phase, the number of initial spheres (counted about 7 days after TMZ treatment) represents the number of proliferating CSC/progenitors (FIG. 1 for schematic). Recovery (counted 14 days after TMZ treatment) includes enlargement of the initial spheres and new spheres formed when CSC/progenitor cells quiescent as a result of chemotherapy resume cell proliferation. […] The cells used included U87NS, a neurosphere culture converted to neurosphere growth in defined medium from U87MG (an old Swedish line that is grown in conventional serum conditions); GS7-2, GS8-26 and GS6-22 primary neurosphere cultures that were obtained from grade IV GBM patient tumor samples and AS5-15, which was obtained from a grade III anaplastic astrocytoma.
To determine the effects of TMZ plus DAPT neurospheres, cells were plated as previously described (Mihaliak et al., Cancer Letts. 296, 168-177 (2010)). Immediately after plating, cells were treated with DMSO, DAPT-only, LY411,575 (LY)-only TMZ-only, TMZ+DAPT or TMZ+LY. The initial neurospheres were counted on day 7 for the converted cell lines and on day 10 for the slower growing primary lines. Neurosphere recovery was measured on day 14 or 20. The neurospheres were dissociated, re-plated and secondary neurosphere formation was measured on day 21 or 30.
Neurosphere cultures were dissociated to single cell suspensions by pH dissociation followed by filtration through 40 μm screens. […] Neurospheres consisting of 10 or more cells were counted under a light microscope on day 7 for the converted cell lines. Primary lines have a slightly longer doubling time and were counted on day 10. […] Neurospheres from the recovery period were counted on day 14 or day 20. […] The number of secondary neurospheres formed by converted cell lines and primary cultures were counted on day 21 or day 30, respectively. […]

| Structure (SMILES) | decrease of Hey1 mRNA level ([1]; U87NS, DAPT 1 μM) [%] | Hey1 expression (qRT-PCR) ([1]; U87NS-NICD) | Hey1 expression (qRT-PCR) ([1]; U87NS-pMIG) | decrease of Hey1 mRNA level ([1]; U373NS, DAPT 5 μM) [%] | mice / xenografts with tumor progression (tumor volume doubled) ([2]; TMZ 20 mg/kg i.p. days 1-2, LY chow day 3 to 12) | average time until tumor volume doubled (progression) ([2]; after treatment, progressing mice only) [days] | mice that succumbed to progression ([2]; in vivo TMZ treatment) [%] | recovery: increase in the number of neurospheres ([3]; day 20 relative to day 10, DAPT 5 μM) [fold] | secondary neurosphere formation, TMZ-only treated culture relative to TMZ+DAPT treated culture ([3]; day 30, P<0.001) [fold] | average number of cells per neurosphere capable of self-renewal ([3]; secondary neurospheres divided by recovery neurospheres) [cells per neurosphere] |
| --- | --- | --- | --- | --- | --- | --- | --- | --- | --- | --- |
| C[C@H](NC(=O)Cc1cc(F)cc(F)c1)C(=O)N[C@H](C(=O)OC(C)(C)C)c1ccccc1 [DAPT, N-[N-(3,5-difluorophenacetyl)-L-alanyl]-(S)-phenylglycine t-butyl ester] | 76 | minimal decrease | decreased | 51 |  |  |  |  |  |  |
| Cn1nnc2c(C(N)=O)ncn2c1=O [TMZ, temozolomide] |  |  |  |  | 8/8 | 23 ± 7 | 100 | 1.6 | 25 | 31 |
